# Values of other authors, collected in PubChem BioAssay AID1259409 (Chemical Carcinogenesis Research Information System (CCRIS), 2018).
# System: rodent chemically induced tumor inhibition, incidence and multiplicity
# Assay: CCRIS tumor inhibitor studies
# Settings: Carcinogen: 4-(METHYLNITROSAMINO)-1-(3-PYRIDYL)-1-BUTANONE; 64091-91-4; Dose [Inhibitor]: 0; 25 UMOL IN 0.1 ML CORN OIL ONCE 2 HR PRIOR TO CARCINOGEN DOSE (STUDY DURATION: 16 WK); Route [Inhibitor]: GAVAGE; Species: MOUSE; Strain/Sex: STRAIN-A/FEMALE; Target Tissue: Type of Lesion: LUNG: TUMOR; Dose [Carcinogen]: 10 UMOL IN 0.1 ML SALINE ONCE; Promoter: NONE USED
smiles,measurement,value
CCCCC(O)CCC(=O)c1ccccc1 (stereo unspecified),"tumour outcome (control, treated, inhibition, significance)","100%, 100%, 0%, not significant"
